pKi: −log10 of the molar value. Read-outs that look alike come from different tables or passages of the source.
Experiments:
human orexin-2 receptor = human orexin-2 receptor (Homo sapiens (Human), UniProt O43614); assay: Human orexin 2 receptor radioligand binding ([3H]-EMPA competition); conditions: HEK293 cells stably expressing human orexin-2 receptor; [3H]-EMPA 5 nM final; read-out: OR-2 Ki
Method in brief: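 Competition binding on HEK293 cells stably expressing human orexin-2 receptor, using 5 nM final [3H]-EMPA in PBS, compounds 0.1 nM to 10 μM (DMSO ≤0.1%). 60 min at room temperature, then filtration and scintillation counting; nonspecific binding defined with 10 μM of a reference antagonist.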

human orexin 1 receptor = human orexin 1 receptor (Homo sapiens (Human), UniProt O43613); assay: Human orexin 1 receptor radioligand binding ([3H]-SB674042 competition); conditions: read-out: OR-1 Ki
human orexin 1 receptor, sequence (O43613 whole entry): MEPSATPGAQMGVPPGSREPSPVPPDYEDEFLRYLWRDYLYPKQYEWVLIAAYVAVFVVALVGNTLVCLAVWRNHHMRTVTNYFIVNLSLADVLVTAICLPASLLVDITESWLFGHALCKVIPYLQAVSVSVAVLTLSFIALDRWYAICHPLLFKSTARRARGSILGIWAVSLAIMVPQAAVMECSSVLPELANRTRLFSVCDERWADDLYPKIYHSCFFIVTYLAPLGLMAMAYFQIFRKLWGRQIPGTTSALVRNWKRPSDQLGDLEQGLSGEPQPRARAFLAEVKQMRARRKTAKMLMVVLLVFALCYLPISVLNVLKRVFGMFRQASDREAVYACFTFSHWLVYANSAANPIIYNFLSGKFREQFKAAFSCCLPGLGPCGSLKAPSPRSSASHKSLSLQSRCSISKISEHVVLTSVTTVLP
Method in brief: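 CHO cells stably expressing human OX1R incubated 60 min at room temperature with [3H]-SB674042 and compounds (7 concentrations, 0.1 nM–10 μM; DMSO ≤0.1%) in PBS. Nonspecific binding defined with 10 μM of a reference urea antagonist; bound radioactivity measured by filtration and scintillation counting.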

[1] = CHO cells stably expressing human orexin 1 receptor, [3H]-SB674042 4 nM final

human orexin-2 receptor, sequence (O43614 whole entry): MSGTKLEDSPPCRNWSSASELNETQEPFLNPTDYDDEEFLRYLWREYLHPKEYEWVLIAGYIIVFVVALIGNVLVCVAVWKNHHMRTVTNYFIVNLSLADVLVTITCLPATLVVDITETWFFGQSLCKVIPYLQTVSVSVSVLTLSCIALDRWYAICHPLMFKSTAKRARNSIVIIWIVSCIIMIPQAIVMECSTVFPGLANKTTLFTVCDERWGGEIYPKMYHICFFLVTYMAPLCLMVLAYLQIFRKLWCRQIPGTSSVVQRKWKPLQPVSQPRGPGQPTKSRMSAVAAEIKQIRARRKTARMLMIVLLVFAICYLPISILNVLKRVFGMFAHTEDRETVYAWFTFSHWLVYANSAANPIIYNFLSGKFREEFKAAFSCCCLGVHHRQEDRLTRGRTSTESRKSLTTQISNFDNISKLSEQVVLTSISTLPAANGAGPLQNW

Row | Compound | pKi (human orexin-2 receptor) | pKi (human orexin 1 receptor; [1]) | pKi (human orexin 1 receptor)
1 | COc1ccnc(N2CC3CN(C(=O)c4ccccc4-c4cccs4)CC32)n1 (stereo not shown) [Example 62, 6-(4-Methoxypyrimidin-2-yl)-3-[(2-thiophen-2-ylphenyl)carbonyl]-3,6-diazabicyclo[3.2.0]heptane] | 6.91 | 5.30 | 
2 | COc1ccnc(N2CC3CN(C(=O)c4ccccc4-c4ccccc4)CC32)n1 (stereo not shown) [Example 63, 3-(Biphenyl-2-ylcarbonyl)-6-(4-methoxypyrimidin-2-yl)-3,6-diazabicyclo[3.2.0]heptane] | 6.41 | 5.00 | 
3 | CCOc1ccc2ccccc2c1C(=O)N1CC2CN(c3nc(OC)cc(OC)n3)C2C1 (stereo not shown) [Example 64, 6-(4,6-Dimethoxypyrimidin-2-yl)-3-[(2-ethoxynaphthalen-1-yl)carbonyl]-3,6-diazabicyclo[3.2.0]heptane] | 6.96 | 6.09 | 
4 | CCOc1ccc2ccccc2c1C(=O)N1CC2CN(c3nc(C)cc(C)n3)C2C1 (stereo not shown) [Example 65, 6-(4,6-Dimethylpyrimidin-2-yl)-3-[(2-ethoxynaphthalen-1-yl)carbonyl]-3,6-diazabicyclo[3.2.0]heptane] | 7.38 | 5.97 | 
5 | Cc1cc(C)nc(N2CC3CN(C(=O)c4ccccc4-n4nccn4)CC32)n1 (stereo not shown) [Example 66, 6-(4,6-Dimethylpyrimidin-2-yl)-3-{[2-(2H-1,2,3-triazol-2-yl)phenyl]carbonyl}-3,6-diazabicyclo[3.2.0]heptane] | 6.79 | 5.02 | 
6 | O=C(c1ccccc1-n1nccn1)N1CC2CN(c3nccc(-c4ccccc4)n3)C2C1 (stereo not shown) [Example 67, 6-(4-Phenylpyrimidin-2-yl)-3-{[2-(2H-1,2,3-triazol-2-yl)phenyl]carbonyl}-3,6-diazabicyclo[3.2.0]heptane] | 6.81 | 6.65 | 
7 | Cc1ccc(-n2nccn2)c(C(=O)N2CC3CN(c4nc(C)cc(C)n4)C3C2)c1 (stereo not shown) [Example 68, 6-(4,6-Dimethylpyrimidin-2-yl)-3-{[5-methyl-2-(2H-1,2,3-triazol-2-yl)phenyl]carbonyl}-3,6-diazabicyclo[3.2.0]heptane] | 6.72 | 5.30 | 
8 | Cc1ccc(-n2nccn2)c(C(=O)N2CC3CN(c4nccc(-c5ccccc5)n4)C3C2)c1 (stereo not shown) [Example 69] | 7.21 | 6.89 | 
9 | O=C(c1cc(F)ccc1-n1nccn1)N1CC[C@H]2CN(c3cnnc(Cl)c3)[C@H]2C1 [Example 87, (1R,6S)-8-(6-Chloropyridazin-4-yl)-3-{[5-fluoro-2-(2H-1,2,3-triazol-2-yl)phenyl]carbonyl}-3,8-diazabicyclo[4.2.0]octane] | 5.85 | ≤ 5.00 | 
10 | Cc1cc(C)nc(N2C[C@@H]3CCN(C(=O)c4ccc(C)nc4-n4ccnn4)C[C@@H]32)n1 [Example 88, (1R,6S)-8-(4,6-Dimethylpyrimidin-2-yl)-3-{[6-methyl-2-(1H-1,2,3-triazol-1-yl)pyridin-3-yl]carbonyl}-3,8-diazabicyclo[4.2.0]octane] | 6.63 | 5.09 | 
11 | Cc1cc(C)nc(N2C[C@@H]3CCN(C(=O)c4cccnc4C(F)(F)F)C[C@@H]32)n1 [Example 89, (1R,6S)-8-(4,6-Dimethylpyrimidin-2-yl)-3-{[2-(trifluoromethyl)pyridin-3-yl]carbonyl}-3,8-diazabicyclo[4.2.0]octane] | 6.66 | 5.00 | 
12 | COc1ccc(C(=O)N2CC[C@H]3CN(c4nc(C)cc(C)n4)[C@H]3C2)c(-n2nccn2)c1 [Example 90, (1R,6S)-8-(4,6-Dimethylpyrimidin-2-yl)-3-{[4-methoxy-2-(2H-1,2,3-triazol-2-yl)phenyl]carbonyl}-3,8-diazabicyclo[4.2.0]octane] | 6.82 | ≤ 5.00 | 
13 | Cc1cc(N2C[C@@H]3CCN(C(=O)c4ccc(C)nc4-n4ccnn4)C[C@@H]32)nc(C(F)(F)F)n1 [Example 91, (1R,6S)-3-{[6-Methyl-2-(1H-1,2,3-triazol-1-yl)pyridin-3-yl]carbonyl}-8-[6-methyl-2-(trifluoromethyl)pyrimidin-4-yl]-3,8-diazabicyclo[4.2.0]octane] | 6.28 | 5.27 | 
14 | Cc1cc(N2C[C@@H]3CCN(C(=O)c4c(F)cccc4-c4ncccn4)C[C@@H]32)nc(C(F)(F)F)n1 [Example 92, (1R,6S)-3-[(2-Fluoro-6-pyrimidin-2-ylphenyl)carbonyl]-8-[6-methyl-2-(trifluoromethyl)pyrimidin-4-yl]-3,8-diazabicyclo[4.2.0]octane] | 7.08 | 6.66 | 
15 | Cc1ccc(C(=O)N2CC[C@H]3CN(c4nccc(C(F)(F)F)n4)[C@H]3C2)c(-n2ccnn2)n1 [Example 93, (1R,6S)-3-{[6-Methyl-2-(1H-1,2,3-triazol-1-yl)pyridin-3-yl]carbonyl}-8-[4-(trifluoromethyl)pyrimidin-2-yl]-3,8-diazabicyclo[4.2.0]octane] | 6.64 | 5.43 | 
16 | O=C(c1cc(F)ccc1-n1nccn1)N1CC[C@H]2CN(c3nccc(C(F)(F)F)n3)[C@H]2C1 [Example 94, (1R,6S)-3-{[5-Fluoro-2-(2H-1,2,3-triazol-2-yl)phenyl]carbonyl}-8-[4-(trifluoromethyl)pyrimidin-2-yl]-3,8-diazabicyclo[4.2.0]octane] | 6.43 | 5.00 | 
17 | O=C(c1c(F)cccc1-n1nccn1)N1CC[C@H]2CN(c3nccc(C(F)(F)F)n3)[C@H]2C1 [Example 95, (1R,6S)-3-{[2-Fluoro-6-(2H-1,2,3-triazol-2-yl)phenyl]carbonyl}-8-[4-(trifluoromethyl)pyrimidin-2-yl]-3,8-diazabicyclo[4.2.0]octane] | 7.64 | 6.20 | 
18 | Cc1cnc(C)c(N2C[C@@H]3CCN(C(=O)c4ccccc4-n4nccn4)C[C@@H]32)n1 [Example 96, (1R,6S)-8-(3,6-Dimethylpyrazin-2-yl)-3-{[2-(2H-1,2,3-triazol-2-yl)phenyl]carbonyl}-3,8-diazabicyclo[4.2.0]octane] | 6.59 | 5.23 | 
19 | Cc1cnc(C)c(N2C[C@@H]3CCN(C(=O)c4cc(F)ccc4-n4nccn4)C[C@@H]32)n1 [Example 97, (1R,6S)-8-(3,6-Dimethylpyrazin-2-yl)-3-{[5-fluoro-2-(2H-1,2,3-triazol-2-yl)phenyl]carbonyl}-3,8-diazabicyclo[4.2.0]octane] | 5.89 | 5.30 | 
20 | Cc1cnc(C)c(N2C[C@@H]3CCN(C(=O)c4c(F)cccc4-n4nccn4)C[C@@H]32)n1 [Example 98, (1R,6S)-8-(3,6-Dimethylpyrazin-2-yl)-3-{[2-fluoro-6-(2H-1,2,3-triazol-2-yl)phenyl]carbonyl}-3,8-diazabicyclo[4.2.0]octane] | 6.56 | 5.31 | 
21 | Cc1cnc(C)c(N2C[C@@H]3CCN(C(=O)c4cccc(F)c4-n4nccn4)C[C@@H]32)n1 [Example 99, (1R,6S)-8-(3,6-Dimethylpyrazin-2-yl)-3-{[3-fluoro-2-(2H-1,2,3-triazol-2-yl)phenyl]carbonyl}-3,8-diazabicyclo[4.2.0]octane] | 7.02 | 5.38 | 
22 | Cc1cnc(N2C[C@@H]3CCN(C(=O)c4ccccc4-n4nccn4)C[C@@H]32)cn1 [Example 100, (1R,6S)-8-(5-Methylpyrazin-2-yl)-3-{[2-(2H-1,2,3-triazol-2-yl)phenyl]carbonyl}-3,8-diazabicyclo[4.2.0]octane] | 6.70 | 5.06 | 
23 | Cc1cnc(N2C[C@@H]3CCN(C(=O)c4c(F)cccc4-n4nccn4)C[C@@H]32)cn1 [Example 101, (1R,6S)-3-{[2-Fluoro-6-(2H-1,2,3-triazol-2-yl)phenyl]carbonyl}-8-(5-methylpyrazin-2-yl)-3,8-diazabicyclo[4.2.0]octane] | 6.72 | 5.18 | 
24 | Cc1cnc(N2C[C@@H]3CCN(C(=O)c4ccc(F)cc4-n4nccn4)C[C@@H]32)cn1 [Example 102, (1R,6S)-3-{[4-Fluoro-2-(2H-1,2,3-triazol-2-yl)phenyl]carbonyl}-8-(5-methylpyrazin-2-yl)-3,8-diazabicyclo[4.2.0]octane] | 6.38 | 5.00 | 
25 | Cc1cnc(N2C[C@@H]3CCN(C(=O)c4cccc(F)c4-n4nccn4)C[C@@H]32)cn1 [Example 103, (1R,6S)-3-{[3-Fluoro-2-(2H-1,2,3-triazol-2-yl)phenyl]carbonyl}-8-(5-methylpyrazin-2-yl)-3,8-diazabicyclo[4.2.0]octane] | 6.44 |  | 5.00
26 | Cc1cnc(N2C[C@@H]3CCN(C(=O)c4cc(F)ccc4-n4nccn4)C[C@@H]32)cn1 [Example 104, (1R,6S)-3-{[5-Fluoro-2-(2H-1,2,3-triazol-2-yl)phenyl]carbonyl}-8-(5-methylpyrazin-2-yl)-3,8-diazabicyclo[4.2.0]octane] | 6.47 | 5.45 | 
27 | Cc1nccnc1N1C[C@@H]2CCN(C(=O)c3ccccc3-n3nccn3)C[C@@H]21 [Example 105, (1R,6S)-8-(3-Methylpyrazin-2-yl)-3-{[2-(2H-1,2,3-triazol-2-yl)phenyl]carbonyl}-3,8-diazabicyclo[4.2.0]octane] | 5.00 | 5.00 | 
28 | Cc1nccnc1N1C[C@@H]2CCN(C(=O)c3c(F)cccc3-n3nccn3)C[C@@H]21 [Example 106, (1R,6S)-3-{[2-Fluoro-6-(2H-1,2,3-triazol-2-yl)phenyl]carbonyl}-8-(3-methylpyrazin-2-yl)-3,8-diazabicyclo[4.2.0]octane] | 5.00 | 5.00 | 
29 | Cc1nccnc1N1C[C@@H]2CCN(C(=O)c3ccc(F)cc3-n3nccn3)C[C@@H]21 [Example 108, (1R,6S)-3-{[4-Fluoro-2-(2H-1,2,3-triazol-2-yl)phenyl]carbonyl}-8-(3-methylpyrazin-2-yl)-3,8-diazabicyclo[4.2.0]octane] | 5.00 | 5.00 | 

From US8680275B2, “Fused heterocyclic compounds as orexin receptor modulators” (Janssen Pharmaceutica NV, priority 2009, dated 2014)
